Measurements as given in patent US20180311217A1, “METHODS OF TREATMENT AND COMPOSITIONS WITH XANTHINE OXIDASE INHIBITORS” (Takeda Pharmaceuticals U.S.A., Inc., priority 2013, published 2018).
Like-named read-outs stand apart in the source and are kept apart here. Marks after values point to notes of the source that are not given here.

Key:
[1] = test system: hyperuricemic gout subjects with moderate to severe renal impairment; assay: Example 1 study: subjects experiencing gout flares; type: in vivo, human
Description: All subjects received colchicine 0.6 mg every other day (QOD) from the initial screening visit through the Month 6 visit only. Alternatively, if colchicine was not tolerated by the subject, prednisone may have been provided at the investigator's discretion in accordance with the stated guidelines listed under Prohibited Concomitant Medications.
All subjects were instructed to take colchicine 0.6 mg QOD for prophylaxis. Colchicine began at the Screening Day −21 visit for all subjects. Subjects received colchicine 0.6 mg QOD through the Month 6 visit.
Subjects were assessed for gout flares from the time the ICF was signed and throughout the duration of the study. Subjects were instructed to call the Investigator as soon as they thought they were having a gout flare. The Gout Flare Assessment Worksheet was completed by the site personnel (ie, study coordinator, study nurse, or the investigator).
Subjects were instructed to report the following information: the onset and end date of the flare, the kind of prophylaxis medication they were taking at the time of the event, whether or not the attack required medication (including type) and dates of treatment, the location of the flare, signs and symptoms regarding the flare including the severity, subjects' pain intensity (pain in rest), and the assessment of current gout flare compared to all previous gout flares in any joints. In addition, the subjects were asked an exploratory question in nature: the subject was asked during their current gout attack to indicate the degree of which the subject's physical mobility had been limited (on a scale of 0-10). The investigator reviewed the information provided and assessed whether or not they believed the subject experienced a gout flare and/or documented an alternative etiology.
Summary statistics for the number and percentage of subjects experiencing a gout flare were summarized by treatment group within the following intervals: Day 1 to Month 2 (Day 1 to 60), Month 2 to 4 (Day 61 to 120), Month 4 to 6 (Day 121 to 180), Month 6 to 8 (Day 181 to 240), Month 8 to 10 (Day 241 to 300), Month 10 to 12 (>day 301, and overall Day 1 to Month 6, and Month 6 to Month 12. All gout flares with onset after Day 301 (including those reported <30 days since last dose) were included in the Month 10 to 12 interval.

[2] = Study TMX-99-001: febuxostat plasma pharmacokinetics; type: in vivo, human; set-up: AUC24/Dose: unit not given here; details: mean; for MRT inf / AUC / partial AUC from 0 to 4 hours: human, plasma, oral; for partial AUC from 0 to 4 hours: read-out: AUC0-4

Tmax ([2]; IR 30 mg BID): 0.70 h
Tmin ([2]; IR 30 mg BID): 24.00 h
AUC24/Dose ([2]; IR 30 mg BID, AM + PM dose (60 mg)): 103.73
Cmax ([2]; IR 30 mg BID, Cmax following AM dose): 1488.00 ng/mL
Cmax/dose ([2]; IR 30 mg BID, Cmax following AM dose/AM dose (30 mg)): 49.60 ng/mL/mg
Cmin ([2]; IR 30 mg BID, terminal phase of PM dose): 59.58 ng/mL
AUC24/Dose ([2]; IR 30 mg single dose): 84.16
Cmax ([2]; IR 30 mg single dose): 1283.54 ng/mL
Cmax/dose ([2]; IR 30 mg single dose): 42.78 ng/mL/mg
Tmax ([2]; IR 30 mg single dose): 0.89 h
Tmin ([2]; IR 30 mg single dose): 16.89 h
Cmin ([2]; IR 30 mg single dose, terminal phase at or before 24 hours): 17.50 ng/mL
AUC4-24 ([2]; IR 40 mg single dose): 941.11 ng·h/mL
AUC24 ([2]; IR 40 mg single dose): 4295.13 ng·h/mL
AUC24/Dose ([2]; IR 40 mg single dose): 107.38
Cmax ([2]; IR 40 mg single dose): 1822.11 ng/mL
Cmax/dose ([2]; IR 40 mg single dose): 45.55 ng/mL/mg
Tmax ([2]; IR 40 mg single dose): 1.19 h
Tmin ([2]; IR 40 mg single dose): 21.00 h
Cmin ([2]; IR 40 mg single dose, terminal phase at or before 24 hours): 15.13 ng/mL
AUC0-4 ([2]; IR 50 mg single dose): 3116.06 ng·h/mL
AUC24 ([2]; IR 50 mg single dose): 4374.36 ng·h/mL
AUC24/Dose ([2]; IR 50 mg single dose): 87.49
Cmax ([2]; IR 50 mg single dose): 1791.71 ng/mL
Cmax/dose ([2]; IR 50 mg single dose): 35.83 ng/mL/mg
Tmax ([2]; IR 50 mg single dose): 1.14 h
Tmin ([2]; IR 50 mg single dose): 22.00 h
Cmin ([2]; IR 50 mg single dose, terminal phase at or before 24 hours): 15.98 ng/mL
AUC24 ([2]; IR 70 mg single dose): 6948.21 ng·h/mL
AUC24/Dose ([2]; IR 70 mg single dose): 99.26
Cmax ([2]; IR 70 mg single dose): 2689.91 ng/mL
Cmax/dose ([2]; IR 70 mg single dose): 38.43 ng/mL/mg
Tmax ([2]; IR 70 mg single dose): 1.10 h
Tmin ([2]; IR 70 mg single dose): 23.20 h
Cmin ([2]; IR 70 mg single dose, terminal phase at or before 24 hours): 23.81 ng/mL
AUC0-4 ([2]; IR 90 mg single dose): 6893.00 ng·h/mL
AUC24/Dose ([2]; IR 90 mg single dose): 104.36
Cmax ([2]; IR 90 mg single dose): 4061.63 ng/mL
Cmax/dose ([2]; IR 90 mg single dose): 45.13 ng/mL/mg
Tmin ([2]; IR 90 mg single dose): 24.00 h
Cmin ([2]; IR 90 mg single dose, terminal phase at or before 24 hours): 27.53 ng/mL
AUC24 ([2]; IR 120 mg single dose): 11959.93 ng·h/mL
AUC24/Dose ([2]; IR 120 mg single dose): 99.67
Cmax ([2]; IR 120 mg single dose): 5307.58 ng/mL
Cmax/dose ([2]; IR 120 mg single dose): 44.23 ng/mL/mg
Tmax ([2]; IR 120 mg single dose): 1.11 h
Tmin ([2]; IR 120 mg single dose): 24.00 h
Cmin ([2]; IR 120 mg single dose, terminal phase at or before 24 hours): 41.49 ng/mL
AUC24 ([2]; IR 160 mg single dose): 22282.12 ng·h/mL
AUC24/Dose ([2]; IR 160 mg single dose): 139.26
Cmax ([2]; IR 160 mg single dose): 8771.07 ng/mL
Cmax/dose ([2]; IR 160 mg single dose): 54.82 ng/mL/mg
Tmax ([2]; IR 160 mg single dose): 0.80 h
Tmin ([2]; IR 160 mg single dose): 22.80 h
Cmin ([2]; IR 160 mg single dose, terminal phase at or before 24 hours): 79.88 ng/mL
AUC24 ([2]; IR 180 mg single dose): 23954.54 ng·h/mL
AUC24/Dose ([2]; IR 180 mg single dose): 133.08
Cmax ([2]; IR 180 mg single dose): 8048.76 ng/mL
Cmax/dose ([2]; IR 180 mg single dose): 44.72 ng/mL/mg
Tmin ([2]; IR 180 mg single dose): 24.00 h
Cmin ([2]; IR 180 mg single dose, terminal phase at or before 24 hours): 75.73 ng/mL
AUC24 ([2]; IR 240 mg single dose): 34976.26 ng·h/mL
AUC24/Dose ([2]; IR 240 mg single dose): 145.73
Cmax ([2]; IR 240 mg single dose): 11263.03 ng/mL
Cmax/dose ([2]; IR 240 mg single dose): 46.93 ng/mL/mg
Tmax ([2]; IR 240 mg single dose): 0.94 h
Tmin ([2]; IR 240 mg single dose): 24.00 h
Cmin ([2]; IR 240 mg single dose, terminal phase at or before 24 hours): 71.30 ng/mL
MRT inf ([2]; 30 mg, IR 30 mg BID): 18.6 h
AUC ([2]; 30 mg, IR 30 mg BID, following AM and PM dose, read-out: AUC4-24): 3980 ng·h/mL
AUC ([2]; 30 mg, IR 30 mg BID, following AM and PM dose, read-out: AUC24): 6220 ng·h/mL
partial AUC from 0 to 4 hours ([2]; 30 mg, IR 30 mg BID, following AM dose): 2240 ng·h/mL
MRT inf ([2]; 30 mg, IR 30 mg single dose): 4.99 h
partial AUC from 0 to 4 hours ([2]; 30 mg, IR 30 mg single dose): 1900 ng·h/mL
AUC ([2]; 30 mg, IR 30 mg single dose, read-out: AUC4-24): 629 ng·h/mL
AUC ([2]; 30 mg, IR 30 mg single dose, read-out: AUC24): 2520 ng·h/mL
MRT inf ([2]; 40 mg, IR 40 mg single dose): 4.54 h
partial AUC from 0 to 4 hours ([2]; 40 mg, IR 40 mg single dose): 3350 ng·h/mL
MRT inf ([2]; 50 mg, IR 50 mg single dose): 5 h
AUC ([2]; 50 mg, IR 50 mg single dose, read-out: AUC4-24): 1260 ng·h/mL
MRT inf ([2]; 70 mg, IR 70 mg single dose): 5 h
partial AUC from 0 to 4 hours ([2]; 70 mg, IR 70 mg single dose): 5280 ng·h/mL
AUC ([2]; 70 mg, IR 70 mg single dose, read-out: AUC4-24): 1670 ng·h/mL
MRT inf ([2]; 90 mg, IR 90 mg single dose): 5.81 h
AUC ([2]; 90 mg, IR 90 mg single dose, read-out: AUC4-24): 2500 ng·h/mL
AUC ([2]; 90 mg, IR 90 mg single dose, read-out: AUC24): 9390 ng·h/mL
MRT inf ([2]; 120 mg, IR 120 mg single dose): 5.43 h
partial AUC from 0 to 4 hours ([2]; 120 mg, IR 120 mg single dose): 8590 ng·h/mL
AUC ([2]; 120 mg, IR 120 mg single dose, read-out: AUC4-24): 3370 ng·h/mL
MRT inf ([2]; 160 mg, IR 160 mg single dose): 4.65 h
partial AUC from 0 to 4 hours ([2]; 160 mg, IR 160 mg single dose): 16400 ng·h/mL
AUC ([2]; 160 mg, IR 160 mg single dose, read-out: AUC4-24): 5840 ng·h/mL
MRT inf ([2]; 180 mg, IR 180 mg single dose): 5.53 h
partial AUC from 0 to 4 hours ([2]; 180 mg, IR 180 mg single dose): 16800 ng·h/mL
AUC ([2]; 180 mg, IR 180 mg single dose, read-out: AUC4-24): 7150 ng·h/mL
MRT inf ([2]; 240 mg, IR 240 mg single dose): 4.32 h
partial AUC from 0 to 4 hours ([2]; 240 mg, IR 240 mg single dose): 25100 ng·h/mL
AUC ([2]; 240 mg, IR 240 mg single dose, read-out: AUC4-24): 9900 ng·h/mL
Structure (SMILES): Cc1nc(-c2ccc(OCC(C)C)c(C#N)c2)sc1C(=O)O [Febuxostat, 2-[3-cyano-4-(2-methylpropoxy)phenyl]-4-methylthiazole-5-carboxylic acid]
Percentage of Subjects With Gout Flares ([1]; 30 mg BID, 2 to ≤4 months): (10.7) %
Percentage of Subjects With Gout Flares ([1]; 30 mg BID, 4 to ≤6 months): (14.3) %
Percentage of Subjects With Gout Flares ([1]; 30 mg BID, 4 to ≤6 months, listed as febuxostat): 14.3%
Percentage of Subjects With Gout Flares ([1]; 30 mg BID, 6 to ≤8 months (after prophylaxis ended)): (26.3) %
Percentage of Subjects With Gout Flares ([1]; 30 mg BID, 6 to ≤8 months (after prophylaxis ended), listed as febuxostat): 26.3%
Percentage of Subjects With Gout Flares ([1]; 30 mg BID, 8 to ≤10 months): (5.9) %
Percentage of Subjects With Gout Flares ([1]; 30 mg BID, 10 to ≤12 months): (11.8) %
Percentage of Subjects With Gout Flares ([1]; 30 mg BID, Day 1 to Month 6): (28.1)* %
Percentage of Subjects With Gout Flares ([1]; 30 mg BID, Day 1 to Month 6, listed as febuxostat): 28.1%
Percentage of Subjects With Gout Flares ([1]; 30 mg BID, Month 6 to Month 12): (31.6)* %
Percentage of Subjects With Gout Flares ([1]; 30 mg BID, Month 6 to Month 12, listed as febuxostat): 31.6%
Percentage of Subjects With Gout Flares ([1]; 30 mg BID, ≤2 months): (18.8)* %
Increase of percentage of subjects with at least one gout flare, months 6 to ≤8 relative to months 4 through 6 ([1]; 30 mg IR BID): 84%
Increase of percentage of subjects with at least one gout flare, months 6 to ≤8 relative to months 4 through 6 ([1]; 40/80 mg IR QD): 279%
Percentage of Subjects With Gout Flares ([1]; 40/80 mg QD, 2 to ≤4 months): (27.6) %
Percentage of Subjects With Gout Flares ([1]; 40/80 mg QD, 4 to ≤6 months): (17.9) %
Percentage of Subjects With Gout Flares ([1]; 40/80 mg QD, 4 to ≤6 months, listed as febuxostat): 17.9%
Percentage of Subjects With Gout Flares ([1]; 40/80 mg QD, 6 to ≤8 months (after prophylaxis ended)): (50.0) %
Percentage of Subjects With Gout Flares ([1]; 40/80 mg QD, 6 to ≤8 months (after prophylaxis ended), listed as febuxostat): 50.0%
Percentage of Subjects With Gout Flares ([1]; 40/80 mg QD, 8 to ≤10 months): (22.2) %
Percentage of Subjects With Gout Flares ([1]; 40/80 mg QD, 10 to ≤12 months): (23.1) %
Percentage of Subjects With Gout Flares ([1]; 40/80 mg QD, Day 1 to Month 6): (56.3) %
Percentage of Subjects With Gout Flares ([1]; 40/80 mg QD, Day 1 to Month 6, listed as febuxostat): 56.3%
Percentage of Subjects With Gout Flares ([1]; 40/80 mg QD, Month 6 to Month 12): (64.3) %
Percentage of Subjects With Gout Flares ([1]; 40/80 mg QD, Month 6 to Month 12, listed as febuxostat): 64.3%
Percentage of Subjects With Gout Flares ([1]; 40/80 mg QD, ≤2 months): (50.0) %
